From patent US12643881B2, “Bicyclic amine CDK12 inhibitors” (Incyte Corporation, priority 2021, dated 2026)

target: T1, CDK12 complexed with Cyclin K (Homo sapiens, UniProt Q9NYV4); assay: CDK Enzymatic Assays (HTRF, LANCE Ultra kinase assay), Example A1; type: biochemical; settings: enzyme pre-incubated with compounds for 60 minutes prior to addition of ATP (1 mM final) and Ulight-peptide; reaction 60-90 minutes at room temperature
T1 construct: GST (N)
Summary of the method: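 N-terminal GST-tagged human CDK12 co-expressed with full-length Cyclin K (baculovirus), pre-incubated with compound 60 min, then 1 mM ATP and 50 nM ULight-4E-BP1 peptide added in HEPES pH 7.5 buffer; 60-90 min at room temperature. EDTA/Eu-antibody stop, HTRF 665/620 ratio normalized to controls; IC50 from 3- or 4-parameter fit.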

T1 sequence (Q9NYV4 whole entry): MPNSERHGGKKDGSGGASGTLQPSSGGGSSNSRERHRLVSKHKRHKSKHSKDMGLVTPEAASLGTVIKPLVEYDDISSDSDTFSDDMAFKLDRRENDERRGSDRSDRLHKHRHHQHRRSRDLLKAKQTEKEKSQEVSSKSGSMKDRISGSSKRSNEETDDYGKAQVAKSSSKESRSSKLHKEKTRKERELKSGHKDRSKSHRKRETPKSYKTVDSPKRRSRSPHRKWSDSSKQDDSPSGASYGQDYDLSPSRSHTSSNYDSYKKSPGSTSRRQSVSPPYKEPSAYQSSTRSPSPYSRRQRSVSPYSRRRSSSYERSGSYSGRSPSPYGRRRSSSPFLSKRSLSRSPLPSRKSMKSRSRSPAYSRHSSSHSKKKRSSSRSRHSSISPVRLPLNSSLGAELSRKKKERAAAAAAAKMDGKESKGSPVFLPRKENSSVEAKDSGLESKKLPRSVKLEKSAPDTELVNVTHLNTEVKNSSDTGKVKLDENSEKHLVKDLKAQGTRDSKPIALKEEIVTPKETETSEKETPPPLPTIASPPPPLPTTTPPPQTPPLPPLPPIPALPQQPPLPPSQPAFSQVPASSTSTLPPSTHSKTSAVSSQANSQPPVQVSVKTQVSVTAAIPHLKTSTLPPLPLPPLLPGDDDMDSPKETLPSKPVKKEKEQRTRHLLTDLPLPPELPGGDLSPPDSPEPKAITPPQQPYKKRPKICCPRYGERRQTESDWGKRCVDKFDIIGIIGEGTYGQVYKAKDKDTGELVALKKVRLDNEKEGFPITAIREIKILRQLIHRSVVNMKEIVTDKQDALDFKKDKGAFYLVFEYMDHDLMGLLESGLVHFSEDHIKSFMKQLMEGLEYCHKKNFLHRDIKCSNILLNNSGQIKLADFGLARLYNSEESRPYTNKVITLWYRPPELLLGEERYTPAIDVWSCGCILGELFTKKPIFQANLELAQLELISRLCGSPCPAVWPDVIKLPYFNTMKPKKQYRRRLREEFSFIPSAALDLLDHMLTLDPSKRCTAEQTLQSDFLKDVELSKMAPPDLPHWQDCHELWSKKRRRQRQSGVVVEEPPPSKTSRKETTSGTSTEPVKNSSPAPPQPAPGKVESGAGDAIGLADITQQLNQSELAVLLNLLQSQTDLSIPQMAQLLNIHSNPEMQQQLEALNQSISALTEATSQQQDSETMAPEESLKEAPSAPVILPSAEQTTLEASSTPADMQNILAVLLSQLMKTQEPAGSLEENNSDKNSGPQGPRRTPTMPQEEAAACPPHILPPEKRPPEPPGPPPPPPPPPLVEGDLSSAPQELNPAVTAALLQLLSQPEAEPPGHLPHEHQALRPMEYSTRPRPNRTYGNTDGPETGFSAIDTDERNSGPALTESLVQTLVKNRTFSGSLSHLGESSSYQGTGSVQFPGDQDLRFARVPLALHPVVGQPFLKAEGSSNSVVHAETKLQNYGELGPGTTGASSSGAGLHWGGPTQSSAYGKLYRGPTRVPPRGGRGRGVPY
T1 sequence (O75909 whole entry partner): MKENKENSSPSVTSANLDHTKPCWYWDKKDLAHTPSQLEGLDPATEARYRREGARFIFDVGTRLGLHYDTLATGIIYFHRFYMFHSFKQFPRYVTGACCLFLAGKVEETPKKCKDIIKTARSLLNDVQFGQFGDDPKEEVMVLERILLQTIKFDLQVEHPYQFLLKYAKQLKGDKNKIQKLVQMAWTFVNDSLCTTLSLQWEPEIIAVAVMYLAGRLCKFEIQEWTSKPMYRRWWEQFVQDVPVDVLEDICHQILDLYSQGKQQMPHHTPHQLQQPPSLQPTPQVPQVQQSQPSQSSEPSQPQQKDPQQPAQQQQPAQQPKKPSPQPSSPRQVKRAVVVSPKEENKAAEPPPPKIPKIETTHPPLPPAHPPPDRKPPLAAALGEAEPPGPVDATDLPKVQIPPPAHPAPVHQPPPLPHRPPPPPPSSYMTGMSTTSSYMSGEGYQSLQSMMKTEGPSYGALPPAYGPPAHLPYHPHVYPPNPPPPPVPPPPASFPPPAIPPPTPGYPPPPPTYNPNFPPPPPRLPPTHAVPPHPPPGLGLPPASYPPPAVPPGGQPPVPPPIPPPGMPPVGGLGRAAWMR

Structure (SMILES)	IC50 [µM]
C=CC(=O)Nc1ccc2c(c1)nc(C(F)F)n2[C@H]1CCC[C@@H](Nc2ncc(C#N)cn2)C1 [Example 84, N-(1-((1S,3R)-3-((5-Cyanopyrimidin-2-yl)amino)cyclohexyl)-2-(difluoromethyl)-1H-benzo[d]imidazol-5-yl)acrylamide]	0.05 to 0.5
C=CC(=O)Nc1ccc2c(c1)C(=O)N([C@H]1CCC[C@@H](Nc3ncc(C(F)(F)F)cn3)C1)C2 [Example 85, N-(3-Oxo-2-((1S,3R)-3-((5-(trifluoromethyl)pyrimidin-2-yl)amino)cyclohexyl)isoindolin-5-yl)acrylamide]	< 0.05
C=CC(=O)Nc1ccc2c(c1)nc(N1C[C@H](O)C[C@@H](Nc3ncc(C(F)(F)F)cn3)C1)n2C [Example 88, N-(2-((3R,5R)-3-Hydroxy-5-((5-(trifluoromethyl)pyrimidin-2-yl)amino)piperidin-1-yl)-1-methyl-1H-benzo[d]imidazol-5-yl)acrylamide]	< 0.05
C=CC(=O)Nc1ccc2c(c1)nc(N1C[C@H](F)C[C@@H](Nc3ncc(C#N)cn3)C1)n2C [Example 89, N-(2-((3R,5R)-3-((5-Cyanopyrimidin-2-yl)amino)-5-fluoropiperidin-1-yl)-1-methyl-1H-benzo[d]imidazol-5-yl)acrylamide]	< 0.05
C=CC(=O)Nc1ccc2c(c1)nc(N1CC[C@@H](F)[C@@H](Nc3ncc(C(F)(F)F)cn3)C1)n2C [Example 90, N-(2-((3S,4R)-4-Fluoro-3-((5-(trifluoromethyl)pyrimidin-2-yl)amino)piperidin-1-yl)-1-methyl-1H-benzo[d]imidazol-5-yl)acrylamide]	< 0.05
C=CC(=O)Nc1ccc2c(c1)nc(N1CC[C@H](F)[C@@H](Nc3ncc(C(F)(F)F)cn3)C1)n2C [Example 91, N-(2-((3S,4S)-4-Fluoro-3-((5-(trifluoromethyl)pyrimidin-2-yl)amino)piperidin-1-yl)-1-methyl-1H-benzo[d]imidazol-5-yl)acrylamide]	< 0.05
C=CC(=O)Nc1ccc2c(c1)nc(N1CCC(F)(F)[C@@H](Nc3ncc(C(F)(F)F)cn3)C1)n2C [Example 92, (S)—N-(2-(4,4-Difluoro-3-((5-(trifluoromethyl)pyrimidin-2-yl)amino)piperidin-1-yl)-1-methyl-1H-benzo[d]imidazol-5-yl)acrylamide]	< 0.05
C=CC(=O)Nc1ccc2c(c1)nc(N1C[C@H](F)C[C@@H](Nc3ncc(C(F)(F)F)cn3)C1)n2C [Example 93, N-(2-((3R,5R)-3-Fluoro-5-((5-(trifluoromethyl)pyrimidin-2-yl)amino)piperidin-1-yl)-1-methyl-1H-benzo[d]imidazol-5-yl)acrylamide]	< 0.05
C=CC(=O)Nc1cc2nc(N3C[C@H](F)C[C@@H](Nc4ncc(C(F)(F)F)cn4)C3)n(C)c2cc1C1CC1 [Example 95, N-(6-Cyclopropyl-2-((3R,5R)-3-fluoro-5-((5-(trifluoromethyl)pyrimidin-2-yl)amino)piperidin-1-yl)-1-methyl-1H-benzo[d]imidazol-5-yl)acrylamide]	< 0.05
C=CC(=O)Nc1cc2nc(N3CCC(F)(F)[C@@H](Nc4ncc(C(F)(F)F)cn4)C3)n(C)c2cc1C [Example 97, (S)—N-(2-(4,4-Difluoro-3-((5-(trifluoromethyl)pyrimidin-2-yl)amino)piperidin-1-yl)-1,6-dimethyl-1H-benzo[d]imidazol-5-yl)acrylamide]	< 0.05
C=CC(=O)Nc1cc2nc(N3CC[C@@H](F)[C@@H](Nc4ncc(C(F)(F)F)cn4)C3)n(C)c2cc1C [Example 98, N-(2-((3S,4R)-4-Fluoro-3-((5-(trifluoromethyl)pyrimidin-2-yl)amino)piperidin-1-yl)-1,6-dimethyl-1H-benzo[d]imidazol-5-yl)acrylamide]	< 0.05
C=CC(=O)Nc1cc2nc(N3CC[C@H](F)[C@@H](Nc4ncc(C(F)(F)F)cn4)C3)n(C)c2cc1C [Example 99, N-(2-((3S,4S)-4-Fluoro-3-((5-(trifluoromethyl)pyrimidin-2-yl)amino)piperidin-1-yl)-1,6-dimethyl-1H-benzo[d]imidazol-5-yl)acrylamide]	< 0.05
C=CC(=O)Nc1cc2nc(N3C[C@H](F)C[C@@H](Nc4ncc(C(F)(F)F)cn4)C3)n(C)c2cc1C(C)C [Example 101, N-(2-((3R,5R)-3-Fluoro-5-((5-(trifluoromethyl)pyrimidin-2-yl)amino)piperidin-1-yl)-6-isopropyl-1-methyl-1H-benzo[d]imidazol-5-yl)acrylamide]	< 0.05
C=CC(=O)Nc1c(Br)cc2c(nc(N3CCC[C@@H](Nc4ncc(C(F)(F)F)cn4)C3)n2C)c1C [Example 103, (R)—N-(6-Bromo-1,4-dimethyl-2-(3-((5-(trifluoromethyl)pyrimidin-2-yl)amino)piperidin-1-yl)-1H-benzo[d]imidazol-5-yl)acrylamide]	< 0.05
C=CC(=O)N1C2CCC1CN(c1nccn3c(N4CCC[C@@H](Nc5ncc(C(F)(F)F)cn5)C4)ncc13)C2 [Example 109, 1-(3-(3-((R)-3-((5-(Trifluoromethyl)pyrimidin-2-yl)amino)piperidin-1-yl)imidazo[1,5-a]pyrazin-8-yl)-3,8-diazabicyclo[3.2.1]octan-8-yl)prop-2-en-1-one]	< 0.05

target: T1, CDK12 complexed with Cyclin K; assay: Alternative CDK Enzymatic Assays (HTRF, pre-incubation with compounds and 1 mM ATP), Example A2; type: biochemical; settings: enzyme pre-incubated with compounds and 1 mM ATP for 60 minutes; reaction 120 minutes at 25° C.
Text: Example A2. Alternative CDK Enzymatic Assays
The following activity of the CDK enzymes in complex with their respective cyclins we assayed: CDK1 complexed with Cyclin B1; CDK2 complexed with Cyclin E1; CDK4 complexed with Cyclin D1; CDK6 complexed with Cyclin D1; CDK6 complexed with Cyclin D3; CDK9 complexed with Cyclin T1; CDK7 complexed with Cyclin H/MAT1; CDK2 complexed with Cyclin A2; CDK5 complexed with p35; CDK12 complexed with Cyclin K; CDK13 complexed with Cyclin K. These in vitro enzyme activity are assayed using homogeneous time-resolved energy transfer (HTRF), which measures phosphorylation of a peptide substrate. The LANCER Ultra kinase assay (PerkinElmer) uses a ULight™-labeled EIF4E-binding protein 1 (THR37/46) peptide (DYSTTPGGTLFSTTPGTRI (SEQ ID NO: 1)) substrate and a Europium-labeled anti-phospho-4E-BP1 antibody (CDK2, CDK1, CDK4, CDK6, CDK9, CDK12, CDK13) or ULight™-labeled Myelin Basic Protein peptide (VTPRTPPP (SEQ ID NO: 2)) substrate and a Europium-labeled anti-phospho-MBP antibody (CDK7). Each CDK enzyme activity assays utilized human CDK co-expressed as N-terminal GST-tagged protein with its full length cyclin partner using a baculovirus expression system.
Enzyme was pre-incubated with compounds and 1 mM ATP for 60 minutes (CDK 1, 2, 4, 6, 9, 7, 12, 13) prior to the addition of ATP and Ulight-peptide (1 mM and 50 nM final, respectively), in assay buffer containing 50 mM HEPES pH 7.5, 1 mM EGTA, 10 mM MgCl2, 2 mM DTT, 0.05 mg/mL BSA, and 0.01% Tween 20. The reaction was then incubated for 120 minutes at 25° C. incubator. The reactions were stopped by the addition of EDTA and Europium labeled antibody, for a final concentration of 15 mM and 0.5-1.5 nM, respectively. HTRF signals were read after 15-120 minutes. A ratio of fluorescence transferred to the labeled substrate (665 nm) relative to fluorescence of the Europium donor (620 nm) represents the extent of phosphorylation. Ratios for treated wells were normalized to DMSO only (100% activity) and no enzyme (0% activity) controls. Normalized data was analyzed using a three or four parameter dose response curve to determine IC50 for each compound and are shown in Table B. Control reference inhibitors were included on each plate.

Structure (SMILES)	IC50 [µM]
C=CC(=O)N[C@@H]1CCN(c2nccn3c(N4C[C@H](F)C[C@@H](Nc5ncc(C(F)(F)F)cn5)C4)ncc23)C1 [Example 86, N—((R)-1-(3-((3R,5R)-3-Fluoro-5-((5-(trifluoromethyl)pyrimidin-2-yl)amino)piperidin-1-yl)imidazo[1,5-a]pyrazin-8-yl)pyrrolidin-3-yl)acrylamide]	0.05 to 0.5
C=CC(=O)N1CCCCC1c1ccc2c(c1)nc(N1C[C@H](O)C[C@@H](Nc3ncc(C(F)(F)F)cn3)C1)n2C (stereo partly drawn) [Example 87, 1-(2-(2-((3R,5R)-3-Hydroxy-5-((5-(trifluoromethyl)pyrimidin-2-yl)amino)piperidin-1-yl)-1-methyl-1H-benzo[d]imidazol-5-yl)piperidin-1-yl)prop-2-en-1-one]	0.05 to 0.5
C=CC(=O)Nc1cc2nc(N3C[C@H](F)C[C@@H](Nc4ncc(C#N)cn4)C3)n(C)c2cc1C [Example 96, N-(2-((3R,5R)-3-((5-cyanopyrimidin-2-yl)amino)-5-fluoropiperidin-1-yl)-1,6-dimethyl-1H-benzo[d]imidazol-5-yl)acrylamide]	0.05 to 0.5
C=CC(=O)Nc1cc2nc(N3C[C@H](F)C[C@@H](Nc4ncc(C(F)(F)F)cn4)C3)n(C)c2cc1C [Example 100, N-(2-((3R,5R)-3-fluoro-5-((5-(trifluoromethyl)pyrimidin-2-yl)amino)piperidin-1-yl)-1,6-dimethyl-1H-benzo[d]imidazol-5-yl)acrylamide]	< 0.05
C=CC(=O)Nc1cc2nc(N3CCC[C@@H](Nc4ncc(C(F)(F)F)cn4)C3)n(C)c2cc1C [Example 102, (R)—N-(1,6-Dimethyl-2-(3-((5-(trifluoromethyl)pyrimidin-2-yl)amino)piperidin-1-yl)-1H-benzo[d]imidazol-5-yl)acrylamide]	< 0.05
C=CC(=O)N1[C@H](C)CN(c2nccn3c(N4C[C@H](F)C[C@@H](Nc5ncc(C(F)(F)F)cn5)C4)ncc23)C[C@@H]1C [Example 104, 1-((2S,6R)-4-(3-((3R,5R)-3-Fluoro-5-((5-(trifluoromethyl)pyrimidin-2-yl)amino)piperidin-1-yl)imidazo[1,5-a]pyrazin-8-yl)-2,6-dimethylpiperazin-1-yl)prop-2-en-1-one]	0.05 to 0.5
C=CC(=O)N1CCC12CN(c1nccn3c(N4C[C@H](F)C[C@@H](Nc5ncc(C(F)(F)F)cn5)C4)ncc13)C2 [Example 105, 1-(6-(3-((3R,5R)-3-Fluoro-5-((5-(trifluoromethyl)pyrimidin-2-yl)amino)piperidin-1-yl)imidazo[1,5-a]pyrazin-8-yl)-1,6-diazaspiro[3.3]heptan-1-yl)prop-2-en-1-one]	< 0.05
CC#CC(=O)N1C[C@@H]2C[C@H]1CN2c1nccn2c(N3C[C@H](F)C[C@@H](Nc4ncc(C(F)(F)F)cn4)C3)ncc12 [Example 106, 1-((1S,4S)-5-(3-((3R,5R)-3-Fluoro-5-((5-(trifluoromethyl)pyrimidin-2-yl)amino)piperidin-1-yl)imidazo[1,5-a]pyrazin-8-yl)-2,5-diazabicyclo[2.2.1]heptan-2-yl)but-2-yn-1-one]	0.05 to 0.5
